This note sets out measurements from PubChem BioAssay AID330 (DTP/NCI, 2004).

The structures appear in SMILES notation. Values joined by “and” are separate entries in the source; they are usually repeats but may differ in a detail not shown here. Equal values may be shown once. Inconclusive results and toxic doses are left out.

The test has as its system P388 leukemia ip, CD2F1 mice, survival T/C. The experiment in a line: NCI In Vivo Anticancer Drug Screen. Data for tumor model P388 Leukemia (intraperitoneal) in CD2F1 (CDF1) mice. The note with it: endpoint: median survival time, higher = longer survival. The procedure, abridged: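 Mice carrying the transplanted tumor received test compound or vehicle. Survival was recorded in each group, and the value is the treated-group measurement divided by that of the vehicle-treated control group.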

[1] abbreviates: dose: 50.0 mg/kg/injection, schedule: Q01DX009 (ip), vehicle: saline with Tween-80.
The mark [2] stands for this setting: dose: 100.0 mg/kg/injection, schedule: Q01DX009 (ip), vehicle: saline with Tween-80.
The mark [3] stands for this setting: dose: 200.0 mg/kg/injection, schedule: Q01DX009 (ip), vehicle: saline with Tween-80.
Setting [4] is: dose: 50.0 mg/kg/injection, schedule: Q01DX005 (ip), vehicle: Klucel (hydroxypropylcellulose) (HPC).
Setting [5] is: dose: 100.0 mg/kg/injection, schedule: Q01DX005 (ip), vehicle: Klucel (hydroxypropylcellulose) (HPC).
Where [6] appears, read: dose: 50.0 mg/kg/injection, schedule: Q01DX009 (ip), vehicle: Klucel (hydroxypropylcellulose) (HPC).
[7] abbreviates: dose: 100.0 mg/kg/injection, schedule: Q01DX009 (ip), vehicle: Klucel (hydroxypropylcellulose) (HPC).
Where [8] appears, read: dose: 200.0 mg/kg/injection, schedule: Q01DX009 (ip), vehicle: Klucel (hydroxypropylcellulose) (HPC).
[9] abbreviates: dose: 25.0 mg/kg/injection, schedule: Q01DX005 (ip), vehicle: Klucel (hydroxypropylcellulose) (HPC).
[10] abbreviates: dose: 200.0 mg/kg/injection, schedule: Q01DX005 (ip), vehicle: Klucel (hydroxypropylcellulose) (HPC).
The mark [11] stands for this setting: dose: 60.0 mg/kg/injection, schedule: Q01DX005 (ip), vehicle: saline with Tween-80.
Setting [12] is: dose: 120.0 mg/kg/injection, schedule: Q01DX005 (ip), vehicle: saline with Tween-80.
Where [13] appears, read: dose: 240.0 mg/kg/injection, schedule: Q01DX005 (ip), vehicle: saline with Tween-80.
The mark [14] stands for this setting: dose: 100.0 mg/kg/injection, schedule: Q04DX002 (ip), vehicle: saline with Tween-80.
The mark [15] stands for this setting: dose: 25.0 mg/kg/injection, schedule: Q01DX009 (ip), vehicle: saline with Tween-80.

Regarding `COc1cccc2c1C(=O)c1c(O)c3c(c(O)c1C2=O)CC(O)(C(=O)CBr)CC3OC1CC(OC(C)=O)C(OC(C)=O)C(C)O1` (configuration not stated), the T/C by setting is: (dose: 3.13 mg/kg/injection, schedule: Q04DX003 (ip), vehicle: distilled water + Tween-80) 108 % of control; (dose: 6.25 mg/kg/injection, schedule: Q04DX003 (ip), vehicle: distilled water + Tween-80) 98 % of control; (dose: 12.5 mg/kg/injection, schedule: Q04DX003 (ip), vehicle: distilled water + Tween-80) 106 % of control; (dose: 25.0 mg/kg/injection, schedule: Q04DX003 (ip), vehicle: distilled water + Tween-80) 109 % of control; (dose: 50.0 mg/kg/injection, schedule: Q04DX003 (ip), vehicle: distilled water + Tween-80) 105 % of control.

For the molecule `Clc1ccc(C2=NC(c3ccccc3)/C(=C/c3ccccc3)S2)cc1` (configuration not stated), the T/C reads like this: under setting [1], 101 % of control; under setting [2], 98 % of control; under setting [3], 90 % of control.

As to `CCC1OC2(C)C(O)C(/C=C/C=C/C=C/c3oc(=O)cc(OC)c3C)OC1(C)C2OC(C)=O` (configuration not stated), the T/C (dose: 0.5 mg/kg/injection, schedule: Q01DX009 (ip), vehicle: Klucel (hydroxypropylcellulose) (HPC)) was 109 % of control; the T/C (dose: 1.0 mg/kg/injection, schedule: Q01DX009 (ip), vehicle: Klucel (hydroxypropylcellulose) (HPC)) was 105 % of control; the T/C (dose: 2.0 mg/kg/injection, schedule: Q01DX009 (ip), vehicle: Klucel (hydroxypropylcellulose) (HPC)) was 100 % of control.

As for `O=C(O)c1cccc2c1Cc1cc([N+](=O)[O-])ccc1-2`, the T/C is, setting by setting: under setting [4], 95 % of control; under setting [5], 103 % of control.

As for `Cc1ncc([N+](=O)[O-])n1Cc1nnc(N)s1`, the T/C by setting is: under setting [6], 107 % of control; under setting [7], 107 % of control; under setting [8], 108 % of control.

`COc1cc2c(cc1C(C)c1ccc(OC(C)=O)cc1)OCO2` (configuration not stated): the T/C runs as follows: under setting [9], 103 % of control; under setting [4], 103 % of control; under setting [5], 99 % of control; under setting [10], 101 % of control.

Take `CCCCCC(O)/C=C/[C@H]1C(O)CC2O/C(=C\CCCC(=O)O)C[C@@H]21` (some centres not stated): the T/C is, setting by setting: (dose: 50.0 mg/kg/injection, schedule: Q01DX005 (ip), vehicle: saline) 102 % of control; (dose: 100.0 mg/kg/injection, schedule: Q01DX005 (ip), vehicle: saline) 100 % of control; (dose: 200.0 mg/kg/injection, schedule: Q01DX005 (ip), vehicle: saline) 95 % of control.

In the case of `Nc1nc(C[P+](c2ccccc2)(c2ccccc2)c2ccccc2)c(CCCCc2ccccc2)c(=O)[nH]1`, the T/C was 101 % of control (dose: 12.5 mg/kg/injection, schedule: Q01DX005 (ip), vehicle: Klucel (hydroxypropylcellulose) (HPC)); 101 % of control under setting [9]; 98 % of control and 99 % of control under setting [4].

With `Cc1ccc(S(=O)(=O)CCCCS(=O)(=O)c2ccc(C)cc2)cc1`, the T/C was 107 % of control under setting [11], 104 % of control under setting [12] and 97 % of control under setting [13].

As to `O=C1C=CC2(C=C1)OCC(=O)O2`, the T/C by setting is: under setting [11], 100 % of control; under setting [12], 97 % of control; under setting [13], 96 % of control.

Regarding `Cln1c2c(c3ccccc31)CN(Cc1ccccc1)CC2`, the T/C was 105 % of control under setting [6], 106 % of control under setting [7] and 97 % of control under setting [8].

On to `CNc1ccc(N=Nc2ccncc2C)cc1C`, for which the T/C is 89 % of control (dose: 6.25 mg/kg/injection, schedule: Q01DX009 (ip), vehicle: DMSO); 88 % of control (dose: 12.5 mg/kg/injection, schedule: Q01DX009 (ip), vehicle: DMSO); 87 % of control (dose: 25.0 mg/kg/injection, schedule: Q01DX009 (ip), vehicle: DMSO).

Consider `N/C(=N\N=C1CCCCC1)N[N+](=O)[O-]`, for which the T/C is 105 % of control under setting [4], 102 % of control under setting [5] and 102 % of control under setting [10].

Consider `CCC/C(=N\NC(N)=Nc1ccc(Cl)cc1)c1ccc(Cl)cc1`, for which the T/C is, setting by setting: (dose: 25.0 mg/kg/injection, schedule: Q04DX002 (ip), vehicle: saline with Tween-80) 99 % of control; (dose: 50.0 mg/kg/injection, schedule: Q04DX002 (ip), vehicle: saline with Tween-80) 100 % of control; under setting [14], 104 % of control.

Consider `C=Cc1cnc([N+](=O)[O-])n1C`, for which the T/C was 110 % of control and 123 % of control under setting [6]; 111 % of control under setting [7]; 153 % of control under setting [8].

For the molecule `O=C1NNC(=O)C1C(=O)Nc1ccccc1`, the T/C is, setting by setting: (dose: 0.93 mg/kg/injection, schedule: Q01DX005 (ip), vehicle: Klucel (hydroxypropylcellulose) (HPC)) 100 % of control; (dose: 1.87 mg/kg/injection, schedule: Q01DX005 (ip), vehicle: Klucel (hydroxypropylcellulose) (HPC)) 103 % of control; (dose: 3.75 mg/kg/injection, schedule: Q01DX005 (ip), vehicle: Klucel (hydroxypropylcellulose) (HPC)) 100 % of control; (dose: 15.0 mg/kg/injection, schedule: Q01DX005 (ip), vehicle: Klucel (hydroxypropylcellulose) (HPC)) 113 % of control.

As for `O=C(NCc1ccccc1)C1C(=O)N(Cc2ccccc2)C(=O)/C1=N/O` (configuration not stated), the T/C was 100 % of control (dose: 50.0 mg/kg/injection, schedule: Q01DX005 (ip), vehicle: saline with Tween-80); 100 % of control (dose: 100.0 mg/kg/injection, schedule: Q01DX005 (ip), vehicle: saline with Tween-80); 100 % of control (dose: 200.0 mg/kg/injection, schedule: Q01DX005 (ip), vehicle: saline with Tween-80).

On to `COc1cc(/C=C/C(=O)CC(=O)/C=C/c2ccc(O)c(OC)c2)ccc1O`, for which the T/C was 103 % of control (dose: 6.25 mg/kg/injection, schedule: Q01DX009 (ip), vehicle: saline with Tween-80); 100 % of control (dose: 12.5 mg/kg/injection, schedule: Q01DX009 (ip), vehicle: saline with Tween-80); 100 % of control under setting [15]; 94 % of control under setting [1].

`CCOC(=O)C(C)(C)CN(CC(C)(C)C(=O)OCC)C(C)(C)C`: the T/C was 109 % of control (dose: 100.0 mg/kg/injection, schedule: Q04DX003 (ip), vehicle: saline with Tween-80); 109 % of control (dose: 200.0 mg/kg/injection, schedule: Q04DX003 (ip), vehicle: saline with Tween-80); 122 % of control (dose: 400.0 mg/kg/injection, schedule: Q04DX003 (ip), vehicle: saline with Tween-80).

In the case of `O=C1CCCCc2ccc(O)cc21`, the T/C is, setting by setting: (dose: 100.0 mg/kg/injection, schedule: Q01DX009 (ip), vehicle: gum acacia) 104 % of control; (dose: 200.0 mg/kg/injection, schedule: Q01DX009 (ip), vehicle: gum acacia) 102 % of control; (dose: 400.0 mg/kg/injection, schedule: Q01DX009 (ip), vehicle: gum acacia) 110 % of control.

On to `CCCN(CCC)C(=O)c1ccc([N+](=O)[O-])cc1`, for which the T/C is, setting by setting: under setting [15], 106 % of control; under setting [1], 113 % of control; under setting [2], 100 % of control and 104 % of control; under setting [3], 106 % of control.

On to `CCOC(=O)C1=S=C(SCCO)N(C)C1=O`, for which the T/C is 95 % of control under setting [14]; 103 % of control (dose: 200.0 mg/kg/injection, schedule: Q04DX002 (ip), vehicle: saline with Tween-80); 97 % of control (dose: 400.0 mg/kg/injection, schedule: Q04DX002 (ip), vehicle: saline with Tween-80).

Consider `Cc1cc(Cl)n2nc(-c3ccc(Cl)cc3)nc2n1`, for which the T/C (dose: 12.5 mg/kg/injection, schedule: Q01DX009 (ip), vehicle: Klucel (hydroxypropylcellulose) (HPC)) was 106 % of control; the T/C (dose: 25.0 mg/kg/injection, schedule: Q01DX009 (ip), vehicle: Klucel (hydroxypropylcellulose) (HPC)) is 100 % of control; the T/C under setting [6] is 109 % of control and 110 % of control.

Regarding `CCN(CC)CCNc1c2ccc(Cl)cc2nc2ccc(OC)nc12`, the T/C is, setting by setting: under setting [6], 114 % of control; under setting [7], 111 % of control; under setting [8], 117 % of control.
